Consider eleven substances from publication PMC10208956, “Microbial peptides activate tumour-infiltrating lymphocytes in glioblastoma” (Nature, 2023).

Experiment [1] has as its system bacteria/microbiota-reactive CFSEdim CD4+ TILs. The experiment in a line: Proliferation of expanded CFSEdim CD4+ TILs that responded to the bacteria/microbiota peptide pool. The experiment is classed as cell-based, human. The following applies: 5 days; 4 replicate wells; Fig. 4d.
Experiment [2] has as its system sorted CD4+ PE and FITC TCRVβ+ TILs. Put plainly: Proliferation of TCRBV-sorted CD4+ TILs (without TCRBV6.1 and TCRBV6.2). To be noted: sheet 6b. The class given is cell-based, human. An excerpt:
TILs expressing specific TCRBVs were isolated from bulk TILs using a panel of 22 fluorescently labelled TCRBV antibodies that detect 27 different TCRBVs. Twelve TCRBV antibodies were labelled with PE and 10 with FITC (Beckman Coulter). […] After another wash, cells were stained with CD4 (1:100) (APC anti-human CD4, eBioscience), CD8 (1:100) (Pacific blue anti-human CD8, BioLegend), TCRBV-PE (1:25) (Beckman Coulter) and TCRBV-FITC (1:25) (Beckman Coulter) antibodies (Supplementary Table 12) for 30 min. Finally, cells were sorted, seeded at 5 × 10^4 cells per well in T cell medium without h-IL-2 and rested for 1 day before stimulation with 2 × 10^5 cells per well of irradiated autologous PBMCs (45 Gy) and peptide (10 µM).
Two populations of CD4^+ PE-TCRVβ^+ and CD4^+ FITC-TCRVβ^+ were sorted and later mixed together. […] Specific amount of each cytokine/chemokine (pg/ml) was calculated by subtracting the cytokines in the negative control cultures (no peptide control). Source data

Experiment [3] concerns TCC2D3. To be noted: 3 h.
In experiment [4] the test system is TCC88. To be noted: BLS-DRB3*02:02 as APCs; 3 days; SI ≥ 2 positive.
Experiment [5] deals with CD45RA− peripheral T cells. Put plainly: Cytokine/chemokine secretion of unselected peripheral CD4+ T cells in response to LRP6. To be noted: Unselected CD45RA- PBMCs, sheet 6c (right panel). Also on record: IL-1a / IL-1ß / IL-2 / IL-3 / IL-4 / IL-5 / IL-6 / IL-7 / IL-10 / IL-13 / IL-15 / IL-17A / IL-33 / TNF-a: unit not given here. The experiment is classed as cell-based, human.

Experiment [6] concerns IPdBP-pre-stimulated peripheral memory CD4+ T cells. Put plainly: Cytokine/chemokine response of IPdBP-pre-stimulated peripheral memory CD4+ T cells. Also noted: IL-1α / IL-1β / IL-2 / IL-3 / IL-4 / IL-5 / IL-6 / IL-7 / IL-10 / IL-13 / IL-15 / IL-17A / IL-33 / TNF-α: unit not given here. The experiment is classed as cell-based, human.
The test system of experiment [7] is bacteria/microbiota-reactive peripheral CD4+ T cells. Put plainly: Cytokine/chemokine secretion of selected peripheral CD4+ T cells in response to LRP6. The class given is cell-based, human. Also on record: IL-1a / IL-1ß / IL-2 / IL-3 / IL-4 / IL-5 / IL-6 / IL-7 / IL-10 / IL-13 / IL-15 / IL-17A / IL-33 / TNF-a: unit not given here.
For experiment [8], the system named is TCC75. Put plainly: Cytokine/chemokine secretion of TCC75. The experiment is classed as cell-based, human. To be noted: 3 days; Extended Data Fig. 5e.
Setting [9] is: secretion by IPdBP-pre-stimulated peripheral memory CD4+ T cells.
Setting [10] is: Selected peripheral CD4+, sheet 6c (right panel).

With “REFTKATNVRLRF [LAMA5, vaccine pool peptide from laminin subunit α5]”, the “recognition by CD4+ TILs pre-stimulated with the bacteria/microbiota peptide pool, by proliferation and/or GM-CSF secretion (in words)” value in experiment [1] was “recognized”.
Turning to “LWEFNNVSLA [HB4, UniProt bacteria database peptide]”, the entries for the “Proliferation (SI) of sorted CD4+ TILs” value in experiment [2] (replicate 1), in experiment [2] (replicate 2) and in experiment [2] (replicate 3) were 1.585, 1.003 and 1.832, respectively.
In the same order, the values of “LYEFNHSPGF [HGM7, human gut microbiota peptide]” are 2.804, 1.758 and 3.368.
Regarding Ac-KEDMSVPLIKSIRK-NH2 [Pep-bac10], in experiment [3], the “SI: TCC2D3” value was found to be 2.2.
On the same count and under the same terms, to Ac-SNGDLDAIVVARAGLA-NH2 [Pep-bac16] belongs 2.2.
Ac-AVVTQPDK-NH2 [Pep-bac9]: in experiment [3], the “SI: TCC2D3” value turned out to be 2.5.
As to LVDFFHSSAI [HGM32], the “recognition by TCC88, proliferation (in words)” value in experiment [4] is recorded as “stimulatory”.
In the case of Ac-VFDFNHSAIK-NH2 [HGM62], the “Proliferation (SI) of sorted CD4+ TILs” value in experiment [2] (replicate 1) amounted to 1.423; in experiment [2] (replicate 2), 1.043; in experiment [2] (replicate 3), 2.568.
On the same counts, the results for “LLDFNHSMVN [HGM26, human gut microbiota peptide]” are 1.889, 1.31 and 1.491.
HPFALTLFEDILY [LRP6]: in experiment [5], the CCL2/MCP-1 was 0, the CCL3/MIP-1a is recorded as 38350.7, the CCL4/MIP-1ß worked out at 1401.95 and the CCL11/Eotaxin is 0. Besides, in experiment [5], the CCL19/MIP-3ß stood at 0, the CCL20/MIP-3a is 6.73, the “CD40 Ligand” value is 1116.41 and the CXCL1/GROa was found to be 804.34. Further, in experiment [5], the CXCL2/GROß was 0, the CXCL8/IL-8 stood at 0, the CXCL10/IP-10 amounted to 0 and the “Flt-3 Ligand” value came out at 15.31. In addition, in experiment [5], the GM-CSF came to 488.27, the “Granzyme B” value was 0, the IFN-a turned out to be 1.18 and the IFN-γ is listed as 0. Besides, in experiment [5], the IL-1a amounted to 104.35, the IL-1ra is listed as 0, the IL-1ß is reported as 600.74 and the IL-2 was 0. In experiment [5], the IL-3 stood at 1.65, the IL-4 worked out at 0, the IL-5 worked out at 0 and the IL-6 was determined as 20465.9. Also, in experiment [5], the IL-7 was found to be 0.54, the IL-10 was determined as 27.41, the IL-12p70 is recorded as 9.74 and the IL-13 is recorded as 0. In experiment [5], this substance returned an IL-15 of 1.25, an IL-17A of 0, an IL-17E/IL-25 of 0 and an IL-33 of 7.76. In experiment [5], this substance registered an RANTES of 0 and a TNF-a of 67.2. Further, the “cytokine and chemokine profile of immunopeptidome-reactive peripheral CD4+ T cells (in words)” value in experiment [6] (Extended Data Fig. 7c) was “secreted not only GM-CSF but also several other pro-inflammatory cytokines including IFNγ, TNF and granzyme B”. Besides, in experiment [6] (setting [9]), the CCL2/MCP-1 stood at 0, the CCL3/MIP-1α came to 3979.57, the CCL4/MIP-1β was determined as 19527 and the CCL11/Eotaxin is given as 3.84. Also, in experiment [6] (setting [9]), the CCL19/MIP-3β came to 12.07, the CCL20/MIP-3α came out at 17.43, the “CD40 Ligand” value is on record as 4129.61 and the CXCL1/GROα was found to be 0. Further, in experiment [6] (setting [9]), the CXCL2/GROβ is listed as 123.27, the CXCL8/IL-8 was 3466.89, the CXCL10/IP-10 amounted to 353.48 and the “Flt-3 Ligand” value amounted to 131.58. In experiment [6] (setting [9]), the GM-CSF was determined as 8661.95, the “Granzyme B” value stood at 7766.97, the IFN-α was 8.01 and the IFN-γ was found to be 1163.95. In experiment [6] (setting [9]), this substance gave an IL-1rα of 0, an IL-1α of 19.6, an IL-1β of 20.52 and an IL-2 of 11.3. For the same substance, in experiment [6] (setting [9]), the IL-3 is 158.99, the IL-4 is given as 7.36, the IL-5 was 1023.08 and the IL-6 is listed as 217.73. In experiment [6] (setting [9]), the IL-7 is 2.53, the IL-10 is 4192.28, the IL-12p70 is listed as 24.59 and the IL-13 was found to be 3507.83. Also, in experiment [6] (setting [9]), the IL-15 amounted to 4.26, the IL-17A turned out to be 4.67, the IL-17E/IL-25 worked out at 0 and the IL-33 turned out to be 22.2. In experiment [6] (setting [9]), this substance showed an RANTES of 10050.3 and a TNF-α of 3505.52. In experiment [7] (setting [10]), this substance showed a CCL2/MCP-1 of 4526.33, a CCL3/MIP-1a of 3125.42, a CCL4/MIP-1ß of 4031.29 and a CCL11/Eotaxin of 4.67. For the same substance, in experiment [7] (setting [10]), the CCL19/MIP-3ß is 6.3, the CCL20/MIP-3a was 6.57, the “CD40 Ligand” value is reported as 1738.81 and the CXCL1/GROa came out at 373.82. In experiment [7] (setting [10]), the CXCL2/GROß was determined as 350.46, the CXCL8/IL-8 came out at 2606.08, the CXCL10/IP-10 is recorded as 147.39 and the “Flt-3 Ligand” value turned out to be 28.81. In experiment [7] (setting [10]), the GM-CSF was determined as 1627.51, the “Granzyme B” value was determined as 2119.45, the IFN-a amounted to 1.01 and the IFN-γ is on record as 159.02. Besides, in experiment [7] (setting [10]), the IL-1a was found to be 15.17, the IL-1ra turned out to be 3794.38, the IL-1ß was 23.43 and the IL-2 came to 10.94. Further, in experiment [7] (setting [10]), the IL-3 was 107.37, the IL-4 is given as 4.49, the IL-5 is given as 283.76 and the IL-6 is given as 167.44. In experiment [7] (setting [10]), the IL-7 is recorded as 0.7, the IL-10 was determined as 475.26, the IL-12p70 turned out to be 16.63 and the IL-13 amounted to 400.29. In experiment [7] (setting [10]), this substance displayed an IL-15 of 2.76, an IL-17A of 0, an IL-17E/IL-25 of 0 and an IL-33 of 5.21. Also, in experiment [7] (setting [10]), the RANTES was 798.34 and the TNF-a is reported as 1408.41. For the same substance, the “cytokine and chemokine production of selected peripheral CD4+ T cells (in words)” value in experiment [7] (compared with the unselected cells, Extended Data Fig. 6c right) was “produced various cytokines and chemokines”. Besides, the “recognition by CD4+ TILs pre-stimulated with the bacteria/microbiota peptide pool, by proliferation and/or GM-CSF secretion (in words)” value in experiment [1] is “recognized”.
As to Ac-VWEFNHSLHP-NH2 [HGM27], the “Proliferation (SI) of sorted CD4+ TILs” value in experiment [2] (replicate 1) is 2.099; in experiment [2] (replicate 2), 2.919; in experiment [2] (replicate 3), 2.416. Besides, the “cytokine and chemokine profile of TCC75 (in words)” value in experiment [8] is “secretes pro-inflammatory cytokines”.
